Read-outs that look alike come from different tables or passages of the source.

The test system of data set [1] is cystinotic human fibroblasts. Briefly: Cystine depletion assay. The format is cell-based. The conditions noted are these: for cystine depletion levels (in words): compared to cysteamine; for Cystine depletion: compound at 50 μM or 100 μM, Tables 1-3. Put shortly:
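Cystinotic human fibroblasts treated with compound at 50 μM or 100 μM for 60 min at 37° C. After homogenisation and acid protein precipitation, cystine measured by HILIC LC-MS/MS and normalised to protein. Depletion expressed as percent of that achieved by cysteamine at similar concentration.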

The nature of a further data set: Cystine reactivity assay. On the set-up: Cystine Reactivity: unit not given here. The conditions noted are these: for Cystine Reactivity: Tables 1-3; for reactivity with cystine compared to cysteamine (in words): text summary of Tables 1-3. Put shortly:
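3 mM test compound incubated with 100 nM BODIPY FL L-cystine in phosphate buffer, pH 7.4, 30 °C; S–S cleavage relieves quenching, raising fluorescence. Rate taken as slope (RFU/min) of linear fit over time, expressed as percentage of 3 mM cysteamine.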

The nature of the next data set: in vitro. The conditions noted are these: rat.
In another data set the target is T1, human recombinant ADO (Homo sapiens, UniProt Q96SZ5).
T1 sequence (Q96SZ5 1-270): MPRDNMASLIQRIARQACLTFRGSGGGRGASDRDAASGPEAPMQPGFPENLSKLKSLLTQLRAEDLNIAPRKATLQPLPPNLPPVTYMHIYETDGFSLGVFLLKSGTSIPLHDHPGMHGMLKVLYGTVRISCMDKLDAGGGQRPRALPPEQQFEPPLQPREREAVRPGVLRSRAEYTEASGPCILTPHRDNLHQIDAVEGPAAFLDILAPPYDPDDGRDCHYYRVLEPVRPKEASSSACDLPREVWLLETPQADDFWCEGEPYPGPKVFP
It counts as in vitro ADME. Put shortly: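 Test compound (15 mM) incubated with 60 μg/ml human recombinant ADO and 20 nM O2-sensitive fluorescent probe at 37 °C in sealed chamber. Initial rate of fluorescence increase (ex 380/em 650 nm) gave oxygen consumption, expressed relative to 15 mM cysteamine.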

Data set [2] is described as follows: Rodent pharmacokinetic assay (rat). It counts as in vivo. As to conditions: plasma, 2 and 10 mg free base equivalents per kg, intravenous and oral gavage.
Description: (§1) Pharmacokinetic parameters of a test compound in a rodent species (mouse and/or rat) were determined by administering a test compound at 2 and 10 mg free base equivalents per kg via the intravenous and oral gavage route to groups of three animals per route.
(§2) Blood samples were taken at various times after administration, plasma prepared, and submitted to analysis for parent drug using a qualified LC-MS-MS assay. Pharmacokinetics parameters derived from the plasma analytical data were determined using non-compartmental analysis.
A short description of data set [3]: Rodent pharmacokinetic assay (mouse). The conditions noted are these: plasma, 10 mg.
Description: as §1, §2
The nature of the next data set: in vivo. As to conditions: mouse, 10 mg.

Description for in vitro: Rat hepatocytes were used to model in vivo hepatic clearance of the compounds by the ADO enzyme. Briefly, a Hepatocyte Stability Assay was carried out using cryopreserved rat hepatocytes.
Description for in vivo: as §1, §2

For the compound `CN1CCC(S)CC1` [Compound 2d], the “cystine depletion levels (in words)” value in data set [1] is “slightly decreased”. This compound also showed a Cystine depletion in data set [1] of 79%. Further, the “Cystine Reactivity” value in the data set “Cystine reactivity assay” was determined as 7332. In addition, in the data set “Cystine reactivity assay”, the “reactivity with cystine compared to cysteamine (in words)” value was “increased reactivity with cystine compared to cysteamine”. In addition, in the data set “in vitro” (cryopreserved rat hepatocytes), the microsomal CLint at 3 μM was 12600 µL/min/mg. For the same compound, at human recombinant ADO, the “metabolism by ADO compared to cysteamine (in words)” value is “significantly reduced metabolism by ADO compared to cysteamine”. For the same compound, the ADO metabolism at human recombinant ADO (human, 15 mM) is given as 1%. The bioavailability in data set [2] (read-out: Rat PK Bioavailability) was 34%; in data set [3] (oral), 38%. In addition, the results for the half-life in data set [2] (read-out: Rat PK-Half life (converted)) and in data set [3] were 2.3 h and 3.9 h, respectively.
As to `SCCN1CCCC1` [Compound 2b], in data set [1], the “cystine depletion levels (in words)” value is given as “similar” and the Cystine depletion stood at 99%. Moreover, in the data set “Cystine reactivity assay”, the “Cystine Reactivity” value turned out to be 12392 and the “reactivity with cystine compared to cysteamine (in words)” value was “increased reactivity with cystine compared to cysteamine”. This compound registered a microsomal CLint in the data set “in vitro” (hepatocytes) of 15700 µL/min/mg. Further, the ADO metabolism at human recombinant ADO (relative to 15 mM cysteamine, Tables 1-3) came out at 4%. The “metabolism by ADO compared to cysteamine (in words)” value on human recombinant ADO (text summary of Tables 1-3) is reported as “significantly reduced metabolism by ADO compared to cysteamine”. Besides, in “in vivo”, the bioavailability was determined as 33% and the half-life is 0.4 h.

The values are drawn from patent publication US10906904B2, “ADO-resistant cysteamine analogs and uses thereof” (HORIZON ORPHAN LLC, priority 2015, dated 2021).
